Test results published in patent US20120039917A1, “IMMUNO[…]” (priority 2008, published 2012).

Legend:
MM-derived RPMI 8226 = assay: Sensitivity of cell types to PXD, viability by AV/PI staining; assay type: cell-based, human; details: RPMI 8226, 10 μM PXD for 24 h
Procedure: (§1) FIG. 6. Sensitivity of different cell types to PXD. Different cell types were incubated with 10 μM PXD for 24 h and viability was determined by AV/PI staining and reported as [% viable blasts after PXD exposure]/[% viable blasts after 0.1% DMSO exposure]. Percentage values are as follows: AML-derived HL60: 16±5 and HL60p°: 54±6, ALL-derived MOLT-4: 44±4, MM-derived U226: 59±6 and RPMI 8226: 12±4, primary AML blasts: 64±5, primary ALL blasts: 23±4, normal BM: 89±5, proliferating T cells: 69±4, resting T cells: 98±6. Results from cell lines are presented as the average±SEM of at least 3 separate experiments, results from bone marrow samples are presented as the average±SD of single experiments performed in duplicate.
(§2) Cell lines were grown in RPMI-1640 medium (GIBCO-BRL, Grand Island, N.Y.) supplemented with 5% (v/v) fetal calf serum, 2 mM […], 25 μg/mL penicillin, 25 μg/mL streptomycin, 50 μg/mL uridine and 1 mM pyruvate to densities of 1-2×10^6 cells/mL (exponential stage), at 37° C. in a humidified incubator maintained at 5% CO2.
(§3) Cells were centrifuged at 1400 rpm in a Multifuge 3 s (Heraeus) for 4 min at room temperature, washed in phosphate buffered saline solution, pH 7.3 (PBS) and resuspended in Annexin V binding buffer. […] Staining was analyzed by flow cytometry using a Becton Dickinson Canto II FACS analyser using FlowJo (TreeStar) software.

resting T cells [1] = assay: Cell proliferation measured by MTT reduction; assay type: cell-based; details: Homo sapiens, 48 h incubation, read-out: IC50 inhibition of MTT reduction (proliferation)
Procedure: (§4) Immediately prior to experiments, frozen PBMC were thawed, centrifuged at 1400 rpm in a Multifuge 3 s (Heraeus) for 4 min, washed in RPMI+10% FCS and resuspended in T cell medium (RPMI+10% FCS+10 μM 2-mercaptoethanol (Sigma), 1×glutamine, 1×non-essential amino acids (Gibco)) at 2×10^6 cells/mL. Cells (2×10^5) were activated by adding 10 μg/mL anti-CD3 and 5 μg/mL anti-CD28 and 20 U/mL IL-2 per well. Cells were incubated at 37° C. in a humidified incubator maintained at 5% CO2 for 4 to 5 days until large numbers of large spherical aggregates or “bursts” of lymphocytes were observed. Activated proliferating T cells were pooled from the wells for further experiments. Resting T cells were incubated for the same length of time but in the presence of 20 U/mL IL-2 only.
(§5) MTT reduction was measured as previously described (Berridge et al., 1996) in a microplate format as follows: exponentially growing cells were centrifuged at 1400 rpm in a Multifuge 3 s (Heraeus) for 4 min, washed and resuspended in HBSS buffer. […] After 2 h, 100 μL of lysing buffer was added and formazan crystals dissolved by manual pipetting using a multichannel pipette before measuring A570 in a BMG FLUOstar OPTIMA plate reader. […]

proliferating T cells = assay: Cell proliferation measured by MTT reduction; assay type: cell-based; details: Homo sapiens, 48 h incubation, read-out: IC50 inhibition of MTT reduction (proliferation)
Procedure: as §4, §5

responder T cells = assay: HLA-mismatched mixed lymphocyte reaction in the presence of PXD; assay type: cell-based, human; details: 10 μM PXD on day 0, analysed day 8
Procedure: Mixed lymphocyte reactions were established using unrelated, HLA-mismatched healthy donor blood samples as donor/recipient pairs. Stimulator PBMC were γ-irradiated with 30 Gy as described previously (Zenhausen et al., 2007). Responder PBMC were washed twice in PBS, 5,6-carboxy-succinimidyl-fluorescein-ester (CSFE)-labelled (1.25 μM, Sigma) at room temperature for 5 minutes, and washed twice in PBS/10% FCS. Two hundred thousand stimulator and responder cells were added per well at a 1:1 ratio in a 96 U-well plate in T cell medium. Stimulator and responder cells were also plated alone, and all cells were cultured in a 5% CO2, 37° C. humidified incubator. Viability, CFSE fluorescence and cell surface antigen expression were determined by flow cytometry. Cells were washed twice in FACS buffer (PBS, 2% FCS), and resuspended in 50 μL/5×10^5 cells and analysed on a Becton Dickinson LSRII FACS analyser using FlowJo (TreeStar) software.
The ability of PXD to induce apoptosis in proliferating T cells was further tested in a HLA-mismatched MLR. CFSE labelled responder cells were mixed with HLA-mismatched γ-irradiated stimulator cells in the presence of 0.1% DMSO (control) and 10 μM PXD on day 0. Responder cells were analysed for proliferation (CFSEIO) and viability (AV^−) at day 8 to allow exposure of proliferating responder cells to the drug for several days.

resting T cells [2] = assay: Apoptosis/viability by Annexin V/propidium iodide staining; assay type: cell-based, human; details: 10 μM PXD for 24 h
Procedure: as §4
as §3, with “buffer. Small aliquots (0.5-1×10^6 cells) were transferred to 1.5 mL tubes and spun at 1400 rpm in a Multifuge 3 s (Heraeus) for 4 min.” for “buffer.”
(§6) The extent of apoptosis in resting and proliferating T cells was determined after 24 h exposure to 10 μM PXD (FIG. 2) by AV/PI staining. […]

[3] = as above; assay type: cell-based, human; details: human, resting T cells from PBMC; resting T cells, 10 μM PXD for 24 h; read-out: [% viable blasts after PXD exposure]/[% viable blasts after 0.1% DMSO exposure]
Procedure: as §4
as §3, with “buffer. Small aliquots (0.5-1×10^6 cells) were transferred to 1.5 mL tubes and spun at 1400 rpm in a Multifuge 3 s (Heraeus) for 4 min.” for “buffer.”
as §6

AML-derived HL60 = assay: Sensitivity of cell types to PXD, viability by AV/PI staining; assay type: cell-based; details: Homo sapiens, HL-60; HL60, 10 μM PXD for 24 h; read-out: [% viable blasts after PXD exposure]/[% viable blasts after 0.1% DMSO exposure]
Procedure: as §1, §2
Cells were centrifuged at 1400 rpm in a Multifuge 3 s (Heraeus) for 4 min at room temperature, washed in phosphate buffered saline solution, pH 7.3 (PBS) and resuspended in Annexin V binding buffer. Small aliquots (0.5-1×10^6 cells) were transferred to 1.5 mL tubes and spun at 1400 rpm in a Multifuge 3 s (Heraeus) for 4 min. Most supernatant was removed and 5 μL PI and 5 μL FITC-labelled AV was added to the wet pellets which were vortexed. After 30 min in the dark on ice, 500 μl of AV binding buffer was added, the cells were centrifuged for 2 min at 1400 rpm, washed once with AV binding buffer and resuspended in 300 μL of AV binding buffer in FACS tubes. Staining was analyzed by flow cytometry using a Becton Dickinson Canto II FACS analyser using FlowJo (TreeStar) software.

In the case of `Oc1ccc(C2=Cc3ccc(O)cc3OC2)cc1` [PXD, Isoflav-3-en-4′,7-diol], the “[% viable blasts after PXD exposure]/[% viable blasts after 0.1% DMSO exposure]” value (MM-derived RPMI 8226) is reported as 12±4%, the IC50 (resting T cells [1]) is reported as > 200 µM and the IC50 (proliferating T cells) is reported as 5.4 µM. The “resting responder cell population (CD3+CFSEhiAV−)” value (responder T cells) was “present in both control and PXD treated MLR”, the “proliferating allogeneic T cells (CD3+CFSloAV− population)” value (responder T cells; control MLR 46.5%) was 2% and the “percentage of viable resting T cells (AV/PI)” value (resting T cells [2]) was “unaltered”. It also gave a viability at 24 h, 10 μM [3] of 98 ± 6% and a viability at 10 µM (AML-derived HL60) of 16 ± 5%.
